Measured values from patent US20120238520A1, “Novel Medical Use” (priority 2009, published 2012).
Structures can show the parent of a compound that is named as a salt.

Legend:
Format in all cases: in vivo, rat
HCl-instilled rats = assay: HCl (acid aspiration, chemical injury) model of acute lung injury in anesthetized, ventilated rats; details: rats 2 h after intratracheal HCl pH 1.5, vs HCl alone
Description: (§1) The preparation of anesthetized, ventilated rats was used to carry out the below described examples. Techniques of the below described examples have been published (Frank J A, Gutierrez J A, Jones K D, et al.: Low tidal volume reduces epithelial and endothelial injury in acid-injured rat lungs. Am. J. Respir. Crit. Care Med. 165:242-249, 2002; Folkesson H G, Nitenberg G, Oliver B L, et al.: Upregulation of alveolar epithelial fluid transport after subacute lung injury in rats from bleomycin. Am. J. Physiol. 275:L478-490, 1998; Folkesson H G, Norlin A, Wang Y, et al., Dexamethasone and thyroid hormone pretreatment upregulate alveolar epithelial fluid clearance in adult rats. J. Appl. Physiol. 88: 416-424, 2000; and Norlin A, Lu L N, Guggino S E, et al., Contribution of amiloride-insensitive pathways to alveolar fluid clearance in adult rats. J. Appl. Physiol. 90: 1489-1496, 2001).
The methods used are published in the above given references. […]
To evaluate the effect of HCl (chemical injury; a model of aspiration-induced acute lung injury), HCl at pH 1.5 was used (FIG. 1, bottom panel illustrates the time scheme used for HCl treatments). […] Blood was sampled for fluorescence and arterial blood gas measurements every 30 min throughout the experiment. […]

LPS-instilled rats = assay: LPS (endotoxin, biochemical injury) model of sepsis-induced acute lung injury in anesthetized, ventilated rats; details: rats 16 h after intratracheal LPS 5 mg/kg body wt, vs LPS alone
Description: as §1, with “2001). […]” for “2001).”
To evaluate the effect of endotoxin (biochemical injury; a model of sepsis-induced acute lung injury), E. coli LPS at the concentration of 5 mg/kg body wt was given intratracheally (FIG. 1, top panel illustrates the time scheme used for LPS treatments). […] Blood was sampled for fluorescence and arterial blood gas measurements every 30 min throughout the experiment. […] Alveolar fluid clearance, extravascular lung water, and endothelial-epithelial barrier leak were determined.

[1] = tested on: live E. coli-instilled rats; assay: Live E. coli DH5α (biological injury) model of sepsis-induced acute lung injury in anesthetized, ventilated rats; details: rats 3 h after intratracheal live E. coli DH5α, vs E. coli alone
Method: The preparation of anesthetized, ventilated rats was used to carry out the below described examples. […]
To evaluate the effect of live E. coli (biological injury; a model of sepsis-induced acute lung injury), E. coli (serotype DH5α at the concentration of 10^8 cfu/ml was given intratracheally (FIG. 2). Rats were surgically prepared (anesthetized, tracheotomized, outfitted with a carotid artery catheter, and connected to a ventilator). The rats were ventilated for a 30 min baseline of stable blood gases. An instillation catheter was passed to rest just above the bronchial carina and 1 ml/kg body wt of the solution containing 10^8 cfu/ml E. coli DH5α was rapidly instilled into the lungs. The vascular tracer (FITC-labeled albumin) was given after 15 min stabilization time and the 5% albumin solution with and without (2R,3R,4S,5R)-2-(6-amino-2-{[(1S)-2-hydroxy-1-(phenylmethyl)ethyl]amino}-9H-purin-9-yl)-5-(2-ethyl-2H-tetrazol-5-yl)tetrahydro-3,4-furandiol maleate was instilled 2 h later into the distal airspaces of the lung. Blood was sampled for fluorescence and arterial blood gas measurements every 30 min throughout the experiment. […] Alveolar fluid clearance, extravascular lung water, and endothelial-epithelial barrier leak were determined.

rats = assay: Test solution instilled into airspaces of anesthetized, ventilated rats without injury-inducing agent; details: compound by itself, 10^−4 M in 5% albumin instilled into airspaces, any experimental group
Description: as §1
The methods used are published in the above given references. A test solution of 5% albumin with and without […] (2R,3R,4S,5R)-2-(6-amino-2-{[(1S)-2-hydroxy-1-(phenylmethyl)ethyl]amino}-9H-purin-9-yl)-5-(2-ethyl-2H-tetrazol-5-yl)tetrahydro-3,4-furandiol maleate dissolved in 0.9% NaCl was used and instilled into the airspaces of rats to measure alveolar fluid clearance with and without the injury-inducing agent (HCl, LPS, or E. coil, see below for details). […]

SMILES: CCn1nnc([C@H]2O[C@@H](n3cnc4c(N)nc(N[C@H](CO)Cc5ccccc5)nc43)[C@H](O)[C@@H]2O)n1 [(2R,3R,4S,5R)-2-(6-amino-2-{[(1S)-2-hydroxy-1-(phenylmethyl)ethyl]amino}-9H-purin-9-yl)-5-(2-ethyl-2H-tetrazol-5-yl)tetrahydro-3,4-furandiol maleate]
- EVLW (extravascular lung water) (HCl-instilled rats; 10^−4 M compound in 5% albumin instilled into airspaces, FIG. 3 left): a reduction in EVLW was observed, albeit EVLW remained elevated
- ELW (excess lung water) reduced by (HCl-instilled rats; 10^−4 M compound instilled, ELW remained elevated compared to control, FIG. 4 left): ~20%
- EVLW (extravascular lung water) (LPS-instilled rats; 10^−4 M compound in 5% albumin instilled into airspaces, FIG. 3 center): a reduction in EVLW was observed
- ELW (excess lung water) reduced by (LPS-instilled rats; 10^−4 M compound instilled, FIG. 4 center): ~40%
- EVLW (extravascular lung water) ([1]; 10^−4 M compound in 5% albumin instilled into airspaces, FIG. 3 right): a reduction in EVLW was observed
- ELW (excess lung water) reduced by ([1]; 10^−4 M compound instilled, FIG. 4 right): ~40%
- edema formation measured as increased EVLW (extravascular lung water) (rats): believed not to result in edema formation
